Like-named read-outs stand apart in the source and are kept apart here. Each block holds one compound with its values, some of them ahead of it.
Legend:
[1] = cited from earlier work; for change in plasma concentrations on co-administration with JNJ-56914845: healthy volunteers, not considered clinically relevant
[2] = tested on: breast cancer resistance protein; details: cited from earlier work
[3] = tested on: organic anion transporting polypeptide (OATP) 1B1/3; details: cited from earlier work
[4] = tested on: P-glycoprotein; details: cited from earlier work
[5] = tested on: cytochrome P450 (CYP) 3A; details: cited from earlier work
[6] = tested on: HCV NS5A; set-up: method as in PMID 24126581; details: L31M and Y93C (in combination with M28V), GT1a; cited from earlier work
[7] = tested on: HCV GT1, 4, 5 and 6a/6b; set-up: method as in PMID 24107072, PMID 24126581; details: cited from earlier work
[8] = tested on: HCV NS5A; details: all patients with virologic failure in Panel 4
[9] = tested on: HCV replicon with NS5B NNI-1 pocket polymorphisms; experiment: In vitro susceptibility of site-directed mutant replicons (baseline NS5B polymorphisms); assay type: cell-based, hepatitis C virus; details: NS5B polymorphisms observed at baseline (positions 37, 392, 424, 425, 494, 499) with site-directed mutagenesis data
Source text: NS5B polymorphisms were detected at baseline at the non-nucleoside inhibitor (NNI)-1 binding pocket positions 37, 392, 424, 425, 494 and/or 499 across all panels.

[10] = tested on: HCV NS5B; experiment: Population-based sequencing at time of failure, NS5B region; set-up: species or system hepatitis C virus; details: patients with virologic failure
[11] = tested on: HCV GT1, 3, 4, 5 and 6; set-up: method as in PMID 24144360; details: cited from earlier work
[12] = set-up: species or system human; details: in vivo
Description: Plasma pharmacokinetic samples for simeprevir, TMC647055, ritonavir and JNJ-56914845 were collected over 24 h (pre-dose, 1, 2, 3, 4, 5, 6, 8, 10, 12 and 24 h post-dose) at Week 4 from all patients and assayed using validated liquid chromatography-tandem mass spectrometry methods with lower limits of quantification for simeprevir, TMC647055, ritonavir and JNJ-56914845 of 5.0, 5.0, 2.0 and 1.0 ng/mL, respectively (data on file).
No formal sample size calculations were performed as this was a proof-of-concept study. For each efficacy endpoint, the proportion of patients was summarised descriptively together with a 95% confidence interval by treatment group and population. The change in log10 HCV RNA from baseline at all time points was calculated using descriptive statistics. Pharmacokinetic parameters were calculated using non-compartmental analysis (Phoenix WinNonlin® 6.2.1). All safety and tolerability data were summarised descriptively.

[13] = tested on: HCV NS3/4A; experiment: Population-based sequencing at time of failure, NS3/4A region; set-up: species or system hepatitis C virus

SMILES: COC(=O)N[C@H](C(=O)N1CCC[C@H]1c1ncc(-c2ccc(-c3ccc(-c4cnc([C@@H]5CC6(CN5C(=O)[C@@H](NC(=O)OC)C(C)C)OCCO6)[nH]4)cc3)cc2)[nH]1)C(C)C [JNJ-56914845]
increase in exposure (AUC0–24h) on co-administration of simeprevir ([1]; human, in vivo): 2.6 fold | breast cancer resistance protein inhibition [2]: inhibits | OATP1B1/3 inhibition ([3]; in vitro, ref data on file): inhibits | P-glycoprotein inhibition [4]: inhibits | P-glycoprotein substrate status [4]: substrate | CYP3A substrate status [5]: substrate | baseline NS5A polymorphisms and in vitro resistance [6]: associated with in vitro resistance | in vitro antiviral activity [7]: in vitro antiviral activity against HCV GT1, 4, 5 and 6a/6b | emerging RAVs at time of failure [8]: NS5A positions 30 and/or 31

SMILES: COc1ccc2c(c1)C=C1Cn3c-2c(C2CCCCC2)c2ccc(cc23)C(=O)NS(=O)(=O)N(C)CCOCCN(C)C1=O [TMC647055]
fold change in 50 % effective concentration compared to wild-type replicon [9]: < 2 | change in plasma concentrations on co-administration with JNJ-56914845 [1]: small increases | resistance-associated variants (RAVs) observed at failure [10]: NS5B position 495 (mainly P495L) | in vitro antiviral activity [11]: in vitro antiviral activity against HCV GT1, 3, 4, 5 and 6 | differences in pharmacokinetics based on ribavirin use [12]: No differences | increase in exposure with dose [12]: more than dose-proportional increase

differences in pharmacokinetics based on ribavirin use [12]: No differences
SMILES: CC(C)c1nc(CN(C)C(=O)N[C@H](C(=O)N[C@@H](Cc2ccccc2)C[C@H](O)[C@H](Cc2ccccc2)NC(=O)OCc2cncs2)C(C)C)cs1 [ritonavir]

SMILES: COc1ccc2c(O[C@@H]3C[C@H]4C(=O)N[C@]5(C(=O)NS(=O)(=O)C6CC6)C[C@H]5/C=C\CCCCN(C)C(=O)[C@@H]4C3)cc(-c3nc(C(C)C)cs3)nc2c1C [simeprevir]
change in plasma concentrations on co-administration with JNJ-56914845 [1]: small increases | emerging NS3 mutations at time of failure ([13]; GT1a-infected patients with virologic failure (R155K alone or with Q80R; R155S)): NS3 position 155 | emerging NS3 mutation at time of failure ([13]; most GT1b-infected patients with virologic failure): NS3 position 168 | OATP1B1/3 inhibition [3]: inhibits | P-glycoprotein inhibition [4]: inhibits | differences in pharmacokinetics based on ribavirin use [12]: No differences | exposure compared with historical data for simeprevir 150 mg once daily [12]: within the range observed in historical data | CYP3A substrate / inhibitor status [5]: substrate and mild inhibitor (intestinal only)
